According to article PMC4058678 (The Biochemical journal, 2009):
Where two headings read alike, the source gives them in different places.

Tests used:
[1] = target: T1, myeloperoxidase (MPO) (Homo sapiens, UniProt P05164); test: HOCl production by isolated MPO-H2O2-Cl− system; assay type: biochemical
[2] = target: T1, myeloperoxidase (MPO); test: HOCl production by isolated MPO-H2O2-Cl− system; assay type: biochemical; remark: listed apart in the source

T1 sequence (P05164 165-273): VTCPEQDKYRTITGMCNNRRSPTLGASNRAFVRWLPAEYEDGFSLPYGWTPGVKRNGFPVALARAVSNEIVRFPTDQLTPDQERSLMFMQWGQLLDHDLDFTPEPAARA
T1 sequence (P05164 279-745): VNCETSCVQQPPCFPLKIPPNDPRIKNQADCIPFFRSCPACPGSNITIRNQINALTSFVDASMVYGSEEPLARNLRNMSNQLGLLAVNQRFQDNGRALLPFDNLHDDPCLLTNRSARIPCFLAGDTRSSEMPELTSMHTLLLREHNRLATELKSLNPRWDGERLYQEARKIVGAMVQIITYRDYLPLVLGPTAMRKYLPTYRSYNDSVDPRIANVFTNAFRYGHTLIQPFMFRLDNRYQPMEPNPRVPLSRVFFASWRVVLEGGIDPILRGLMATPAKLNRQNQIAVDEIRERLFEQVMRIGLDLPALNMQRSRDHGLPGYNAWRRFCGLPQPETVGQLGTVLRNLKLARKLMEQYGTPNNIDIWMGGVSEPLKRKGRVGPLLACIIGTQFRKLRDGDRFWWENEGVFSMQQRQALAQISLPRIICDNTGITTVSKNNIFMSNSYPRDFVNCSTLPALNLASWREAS

Compound	IC50 [1] [nM]	IC50 [2] [nM]
CC1(C)CC(N)CC(C)(C)N1[O] [4-AminoTEMPO, 4-amino-2,2,6,6-tetramethylpiperidin-1-yloxyl]	1200	
CC1(C)CC(N)C(C)(C)N1[O] (centres unmarked) [3-AminoPROXYL, 3-amino-2,2,5,5-tetramethylpyrrolidin-1-yloxyl]		2700
